Experimental findings from patent publication US8708045B2, “Multifunctional boronic acid crosslinking agents and associated methods” (Halliburton Energy Services, Inc., priority 2010, dated 2014) are described below.

A short description of the data set: Visual solubility of 4-vinylphenyl boronic acid with sorbitol as solubilizing agent. In kind it is physicochemical. The protocol:
In this example, sorbitol was used as an illustrative solubilizing agent to improve the solubility of 4-vinylphenyl boronic acid. A stock solution of 20 g of sorbitol in 200 mL of deionized water was prepared to give a sorbitol concentration of 0.55 M. In several plastic sealable containers was placed 11-15 mg of the boronic acid (maximum of 0.1 mmol in each container), and a variety of solutions were added to the containers, sometimes with pH adjustment. Thereafter, the containers were vortex mixed for 5 minutes, and solubility was analyzed visually.

For `C=Cc1ccc(B(O)O)cc1` [4-vinylphenyl boronic acid], the “Soluble?” value reads like this: (Sample # 1: 10 mL deionized H2O, 11-15 mg boronic acid, vortex 5 minutes, visual) “no”; (Sample # 2: 10 mL stock sorbitol (0.55 M)) “yes”; (Sample # 3: 10 mL stock sorbitol, pH = 14) “yes”; (Sample # 4: 200 μL stock sorbitol, 5 mL deionized H2O) “no”; (Sample # 5: 5 mL deionized H2O, pH = 12.3) “yes”; (Sample # 6: 1 mL stock sorbitol, 5 mL deionized H2O) “no”. The “Soluble?” value (Sample # 7: 2 mL stock sorbitol, 6 mL deionized H2O) is “no”; the “Soluble?” value (Sample # 8: 200 μL stock sorbitol, 5 mL deionized H2O, pH = 10.6) is “no”; the “Soluble?” value (Sample # 9: 2 mL stock sorbitol, 6 mL deionized H2O, pH = 11.0) is “yes”; the “Soluble?” value (Sample # 10: 2 mL stock sorbitol, 10 mL deionized H2O, pH = 10.4) was “yes”; the “Soluble?” value (Sample # 11: 10 mL deionized H2O, pH = 9.8) was “no”; the “Soluble?” value (Sample # 12: 2 mL stock sorbitol, 10 mL deionized H2O, pH = 9.2) was “no”. In addition, the “Soluble?” value (Sample # 13: 2 mL stock sorbitol, 10 mL deionized H2O, pH = 9.4) was “yes”.
